1 compound from PMC4240342 (Bioconjugate Chemistry, 2014) can be followed below.

In the data set the test system is human osteosarcoma Saos-2 cells. In words: Cytotoxicity, CCK-8 bioassay. The note with it: read-out: IC50, cytotoxicity, 72 h incubation, CCK-8, concentrations as hydrazone-bound DOX content, mean ± SEM of three experiments. The data set is classed as cell-based.

As for `COc1cccc2c1C(=O)c1c(O)c3c(c(O)c1C2=O)C[C@@](O)(C(=O)CO)C[C@@H]3O[C@H]1C[C@H](N)[C@H](O)[C@H](C)O1` [Free DOX, Doxorubicin], the IC50 came out at 77 ± 9 nM.
